Among the data in ChEMBL document CHEMBL1158304, “New Oxygenated Cephalotaxus Alkaloids from Cephalotaxus harringtonia var. drupacea” (J Nat Prod, 1996) are IC50 values, retold here.

This assay has as its system P388. As to the kind of experiment: Cytotoxicity against mouse P388 cells. The assay is classed as functional, cell-based.

≈ marks a conversion by molar mass, not a printed value.

The IC50 is the concentration at which inhibition is half-maximal. A higher IC50 goes with weaker potency. On to `COC(=O)C[C@](O)(CCCC(C)C)C(=O)O[C@@H]1C(OC)=C[C@]23CCCN2C[C@@H](O)c2cc4c(cc2[C@H]13)OCO4`, for which the IC50 worked out at 0.38 µg/mL (≈ 0.696 µM).

In the case of `COC(=O)C[C@](O)(CCCC(C)C)C(=O)O[C@@H]1C(OC)=C[C@]23CCCN2C[C@H](O)c2cc4c(cc2[C@H]13)OCO4`, the concentration for half-maximal inhibition (IC50) was 0.33 µg/mL (≈ 0.605 µM).

In the case of `COC(=O)C[C@](O)(CCC(C)C)C(=O)O[C@@H]1C(OC)=C[C@]23CCCN2C[C@H](O)c2cc4c(cc2[C@H]13)OCO4`, it took 0.17 µg/mL (≈ 0.32 µM) to reach half-maximal inhibition (IC50). Compared with the last compound, the IC50 is about 1.9-fold lower.
